In EP4603105A1, “PHARMACEUTICAL COMPOSITION CONTAINING CYCLIC COMPOUND HAVING SELECTIVE KRAS INHIBITORY EFFECT AGAINST HRAS AND NRAS” (CHUGAI SEIYAKU KABUSHIKI KAISHA, priority 2022, dated 2024):
pIC50: −log10 of the molar value. *1 amine or outer side, *2 acyl side, *3 side chain or, on linkers, in order; H or OH if unused. Where a SMILES comes first, the peptide text is derived from it. Bridges are numbered along the chain shown (N, C = ends). [ ]: non-standard residue; d: D form. The star is where a group is joined. hPhe(3-Cl-4-CF3) = N[C@@H](CCc1ccc(C(F)(F)F)c(Cl)c1)C(=O)O; X42 = Cc1ccc(C[C@@H](C(=O)[*:2])N(CCC(F)(F)F)[*:1])cc1; X28 = Cc1ccc(C[C@@H](C(=O)[*:2])N(CC2CCCCC2)[*:1])cc1; X32 = Cc1ccc(C[C@@H](C(=O)[*:2])N(CC2CCCC2)[*:1])cc1; NMePhe(4-CF3) = CN[C@@H](Cc1ccc(C(F)(F)F)cc1)C(=O)O; X37 = Cc1ccc(C[C@@H](C(=O)[*:2])N(CCC(C)C)[*:1])cc1; X44 = Cc1ccc(C[C@@H](C(=O)[*:2])N(CC2CCC2)[*:1])cc1; X27 = COCCCN([C@@H](Cc1ccc(C)cc1)C(=O)[*:2])[*:1]; X46 = C=CCCN([C@@H](Cc1ccc(C)cc1)C(=O)[*:2])[*:1]; X14 = COCCN([C@@H](Cc1ccc(C)cc1)C(=O)[*:2])[*:1]; NPrPhe(4-Me) = CCCN[C@@H](Cc1ccc(C)cc1)C(=O)O; NMeGly(cPent) = CN[C@H](C(=O)O)C1CCCC1; NMeD = CN[C@@H](CC(=O)O)C(=O)O; NMeL = CN[C@@H](CC(C)C)C(=O)O; Morpholide = C1CN(*)CCO1; NMeA = CN[C@@H](C)C(=O)O; Ac5c = NC1(C(=O)O)CCCC1; Aze = O=C(O)[C@@H]1CCN1; NEtG = CCNCC(=O)O; Sar = CNCC(=O)O

Columns and labels:
[1] = molecular target: GDP-bound NRAS wild-type protein (Homo sapiens, UniProt P01111); assay: Binding to NRAS by surface plasmon resonance (SPR), KD and KD ratio to KRAS; settings: ratio of KD for GDP-bound NRAS wild-type protein to KD for KRAS
Chain of GDP-bound NRAS wild-type protein (P01111 whole entry): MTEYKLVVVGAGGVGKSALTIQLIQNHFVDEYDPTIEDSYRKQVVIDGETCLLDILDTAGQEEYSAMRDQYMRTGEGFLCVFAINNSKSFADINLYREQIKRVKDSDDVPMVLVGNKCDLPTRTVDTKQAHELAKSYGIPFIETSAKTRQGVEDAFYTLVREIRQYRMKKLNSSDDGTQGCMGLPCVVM
Summary of the method: (§1)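 Running buffer contained 10 µM GDP and 10 mM MgCl2 to keep RAS in the GDP state, with 4% DMSO at pH 7.4. Compounds were flowed at 100 µL/min in 75 s steps of rising concentration over captured biotin-Avi RAS at 30°C. Sensorgrams were fitted 1:1 for KD.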

[2] = system: human lung cancer strain NCI-H441; assay type: cell-based
Summary of the method: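 Step one: dispense the test compound in serial DMSO dilutions. Step three: add the reagent and measure […].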

HRAS wild-type protein = HRAS wild-type protein (Homo sapiens, UniProt P01112); assay: Binding to HRAS by surface plasmon resonance (SPR), KD and KD ratio to KRAS; settings: ratio of KD for HRAS wild-type protein to KD for KRAS
Chain of HRAS wild-type protein (P01112 whole entry): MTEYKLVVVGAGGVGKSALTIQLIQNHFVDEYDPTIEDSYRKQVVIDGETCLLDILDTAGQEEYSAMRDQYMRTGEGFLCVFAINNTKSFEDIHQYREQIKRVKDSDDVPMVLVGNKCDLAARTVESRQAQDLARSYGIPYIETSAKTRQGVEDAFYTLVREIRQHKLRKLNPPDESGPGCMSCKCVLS
Summary of the method: as §1

Structure (SMILES) | pIC50 [2] | NRAS /KRAS [1] | HRAS /KRAS (HRAS wild-type protein)
CCCN1C(=O)CN(C)C(=O)CN(C)C(=O)[C@H]([C@@H](C)CC)NC(=O)[C@H](CC(C)C)N(C)C(=O)C[C@@H](C(=O)N2CCOCC2)N(C)C(=O)[C@H](C2CCCC2)N(C)C(=O)C2(CCCC2)NC(=O)[C@@H]2CCCN2C(=O)[C@H](CCc2ccc(C(F)(F)F)c(Cl)c2)NC(=O)CN(CC)C(=O)[C@@H]1Cc1ccc(C)cc1 [PP0066] ([NMeL]I[Sar][Sar][NPrPhe(4-Me)][NEtG][hPhe(3-Cl-4-CF3)]P[Ac5c][NMeGly(cPent)][NMeD]-Morpholide; lactam N-11) | 7.58 | B (a compound having 3 or more and less than 10 is denoted as B) | C (A compound having a KD ratio of 0.1 or more and less than 3 is denoted as C)
CCCN1C(=O)CN(CC)C(=O)CN(C)C(=O)[C@H]([C@@H](C)CC)NC(=O)[C@H](CC(C)C)N(C)C(=O)C[C@@H](C(=O)N2CCOCC2)N(C)C(=O)[C@H](C2CCCC2)N(C)C(=O)C2(CCCC2)NC(=O)[C@@H]2CCCN2C(=O)[C@H](CCc2ccc(C(F)(F)F)c(Cl)c2)NC(=O)CN(CC)C(=O)[C@@H]1Cc1ccc(C)cc1 [PP0069] ([NMeL]I[Sar][NEtG][NPrPhe(4-Me)][NEtG][hPhe(3-Cl-4-CF3)]P[Ac5c][NMeGly(cPent)][NMeD]-Morpholide; lactam N-11) | 7.40 | C (A compound having a KD ratio of 0.1 or more and less than 3 is denoted as C) | C (A compound having a KD ratio of 0.1 or more and less than 3 is denoted as C)
CC[C@H](C)[C@@H]1NC(=O)[C@H](CC(C)C)N(C)C(=O)C[C@@H](C(=O)N2CCOCC2)N(C)C(=O)[C@H](C2CCCC2)N(C)C(=O)C2(CCCC2)NC(=O)[C@@H]2CCCN2C(=O)[C@H](CCc2ccc(C(F)(F)F)c(Cl)c2)NC(=O)CN(C)C(=O)[C@H](Cc2ccc(C)cc2)N(CC2CCCC2)C(=O)[C@@H]2CCN2C(=O)[C@H](C)N(C)C1=O [PP0084] ([NMeL]I[NMeA][Aze][X32][Sar][hPhe(3-Cl-4-CF3)]P[Ac5c][NMeGly(cPent)][NMeD]-Morpholide; lactam N-11) | 7.30 | C (A compound having a KD ratio of 0.1 or more and less than 3 is denoted as C) | B (a compound having 3 or more and less than 10 is denoted as B)
CC[C@H](C)[C@@H]1NC(=O)[C@H](CC(C)C)N(C)C(=O)C[C@@H](C(=O)N2CCOCC2)N(C)C(=O)[C@H](C2CCCC2)N(C)C(=O)C2(CCCC2)NC(=O)[C@@H]2CCCN2C(=O)[C@H](CCc2ccc(C(F)(F)F)c(Cl)c2)NC(=O)CN(C)C(=O)[C@H](Cc2ccc(C)cc2)N(CC2CCCCC2)C(=O)[C@@H]2CCN2C(=O)[C@H](C)N(C)C1=O [PP0085] ([NMeL]I[NMeA][Aze][X28][Sar][hPhe(3-Cl-4-CF3)]P[Ac5c][NMeGly(cPent)][NMeD]-Morpholide; lactam N-11) | 6.96 | C (A compound having a KD ratio of 0.1 or more and less than 3 is denoted as C) | C (A compound having a KD ratio of 0.1 or more and less than 3 is denoted as C)
CC[C@H](C)[C@@H]1NC(=O)[C@H](CC(C)C)N(C)C(=O)C[C@@H](C(=O)N2CCOCC2)N(C)C(=O)[C@H](C2CCCC2)N(C)C(=O)C2(CCCC2)NC(=O)[C@@H]2CCCN2C(=O)[C@H](CCc2ccc(C(F)(F)F)c(Cl)c2)NC(=O)CN(C)C(=O)[C@H](Cc2ccc(C)cc2)N(CC2CCC2)C(=O)CN(C)C(=O)CN(C)C1=O [PP0095] ([NMeL]I[Sar][Sar][X44][Sar][hPhe(3-Cl-4-CF3)]P[Ac5c][NMeGly(cPent)][NMeD]-Morpholide; lactam N-11) | 7.74 | C (A compound having a KD ratio of 0.1 or more and less than 3 is denoted as C) | C (A compound having a KD ratio of 0.1 or more and less than 3 is denoted as C)
CC[C@H](C)[C@@H]1NC(=O)[C@H](CC(C)C)N(C)C(=O)C[C@@H](C(=O)N2CCOCC2)N(C)C(=O)[C@H](C2CCCC2)N(C)C(=O)C2(CCCC2)NC(=O)[C@@H]2CCCN2C(=O)[C@H](CCc2ccc(C(F)(F)F)c(Cl)c2)NC(=O)CN(C)C(=O)[C@H](Cc2ccc(C)cc2)N(CC2CCCC2)C(=O)CN(C)C(=O)CN(C)C1=O [PP0096] ([NMeL]I[Sar][Sar][X32][Sar][hPhe(3-Cl-4-CF3)]P[Ac5c][NMeGly(cPent)][NMeD]-Morpholide; lactam N-11) | 7.16 | C (A compound having a KD ratio of 0.1 or more and less than 3 is denoted as C) | C (A compound having a KD ratio of 0.1 or more and less than 3 is denoted as C)
CC[C@H](C)[C@@H]1NC(=O)[C@H](CC(C)C)N(C)C(=O)C[C@@H](C(=O)N2CCOCC2)N(C)C(=O)[C@H](C2CCCC2)N(C)C(=O)C2(CCCC2)NC(=O)[C@@H]2CCCN2C(=O)[C@H](CCc2ccc(C(F)(F)F)c(Cl)c2)NC(=O)CN(C)C(=O)[C@H](Cc2ccc(C)cc2)N(CC2CCCCC2)C(=O)CN(C)C(=O)CN(C)C1=O [PP0097] ([NMeL]I[Sar][Sar][X28][Sar][hPhe(3-Cl-4-CF3)]P[Ac5c][NMeGly(cPent)][NMeD]-Morpholide; lactam N-11) | 6.62 | C (A compound having a KD ratio of 0.1 or more and less than 3 is denoted as C) | C (A compound having a KD ratio of 0.1 or more and less than 3 is denoted as C)

The next compounds have a higher pIC50 [2] than those just listed; values first:

pIC50 [2] | Structure (SMILES) | NRAS /KRAS [1] | HRAS /KRAS (HRAS wild-type protein)
7.96 | CC[C@H](C)[C@@H]1NC(=O)[C@H](CC(C)C)N(C)C(=O)C[C@@H](C(=O)N2CCOCC2)N(C)C(=O)[C@H](C2CCCC2)N(C)C(=O)C2(CCCC2)NC(=O)[C@@H]2CCCN2C(=O)[C@H](CCc2ccc(C(F)(F)F)c(Cl)c2)NC(=O)CN(C)C(=O)[C@H](Cc2ccc(C(F)(F)F)cc2)N(C)C(=O)CN(C)C(=O)CN(C)C1=O [PP0076] ([NMeL]I[Sar][Sar][NMePhe(4-CF3)][Sar][hPhe(3-Cl-4-CF3)]P[Ac5c][NMeGly(cPent)][NMeD]-Morpholide; lactam N-11) | C (A compound having a KD ratio of 0.1 or more and less than 3 is denoted as C) | C (A compound having a KD ratio of 0.1 or more and less than 3 is denoted as C)
8.19 | CC[C@H](C)[C@@H]1NC(=O)[C@H](CC(C)C)N(C)C(=O)C[C@@H](C(=O)N2CCOCC2)N(C)C(=O)[C@H](C2CCCC2)N(C)C(=O)C2(CCCC2)NC(=O)[C@@H]2CCCN2C(=O)[C@H](CCc2ccc(C(F)(F)F)c(Cl)c2)NC(=O)CN(C)C(=O)[C@H](Cc2ccc(C)cc2)N(CCC(C)C)C(=O)[C@@H]2CCN2C(=O)[C@H](C)N(C)C1=O [PP0086] ([NMeL]I[NMeA][Aze][X37][Sar][hPhe(3-Cl-4-CF3)]P[Ac5c][NMeGly(cPent)][NMeD]-Morpholide; lactam N-11) | C (A compound having a KD ratio of 0.1 or more and less than 3 is denoted as C) | B (a compound having 3 or more and less than 10 is denoted as B)
8.26 | C=CCCN1C(=O)[C@@H]2CCN2C(=O)[C@H](C)N(C)C(=O)[C@H]([C@@H](C)CC)NC(=O)[C@H](CC(C)C)N(C)C(=O)C[C@@H](C(=O)N2CCOCC2)N(C)C(=O)[C@H](C2CCCC2)N(C)C(=O)C2(CCCC2)NC(=O)[C@@H]2CCCN2C(=O)[C@H](CCc2ccc(C(F)(F)F)c(Cl)c2)NC(=O)CN(C)C(=O)[C@@H]1Cc1ccc(C)cc1 [PP0089] ([NMeL]I[NMeA][Aze][X46][Sar][hPhe(3-Cl-4-CF3)]P[Ac5c][NMeGly(cPent)][NMeD]-Morpholide; lactam N-11) | C (A compound having a KD ratio of 0.1 or more and less than 3 is denoted as C) | B (a compound having 3 or more and less than 10 is denoted as B)
8.39 | CC[C@H](C)[C@@H]1NC(=O)[C@H](CC(C)C)N(C)C(=O)C[C@@H](C(=O)N2CCOCC2)N(C)C(=O)[C@H](C2CCCC2)N(C)C(=O)C2(CCCC2)NC(=O)[C@@H]2CCCN2C(=O)[C@H](CCc2ccc(C(F)(F)F)c(Cl)c2)NC(=O)CN(C)C(=O)[C@H](Cc2ccc(C)cc2)N(CCC(F)(F)F)C(=O)[C@@H]2CCN2C(=O)[C@H](C)N(C)C1=O [PP0091] ([NMeL]I[NMeA][Aze][X42][Sar][hPhe(3-Cl-4-CF3)]P[Ac5c][NMeGly(cPent)][NMeD]-Morpholide; lactam N-11) | C (A compound having a KD ratio of 0.1 or more and less than 3 is denoted as C) | B (a compound having 3 or more and less than 10 is denoted as B)
8.43 | CC[C@H](C)[C@@H]1NC(=O)[C@H](CC(C)C)N(C)C(=O)C[C@@H](C(=O)N2CCOCC2)N(C)C(=O)[C@H](C2CCCC2)N(C)C(=O)C2(CCCC2)NC(=O)[C@@H]2CCCN2C(=O)[C@H](CCc2ccc(C(F)(F)F)c(Cl)c2)NC(=O)CN(C)C(=O)[C@H](Cc2ccc(C)cc2)N(CCOC)C(=O)[C@@H]2CCN2C(=O)[C@H](C)N(C)C1=O [PP0092] ([NMeL]I[NMeA][Aze][X14][Sar][hPhe(3-Cl-4-CF3)]P[Ac5c][NMeGly(cPent)][NMeD]-Morpholide; lactam N-11) | C (A compound having a KD ratio of 0.1 or more and less than 3 is denoted as C) | C (A compound having a KD ratio of 0.1 or more and less than 3 is denoted as C)
8.66 | CC[C@H](C)[C@@H]1NC(=O)[C@H](CC(C)C)N(C)C(=O)C[C@@H](C(=O)N2CCOCC2)N(C)C(=O)[C@H](C2CCCC2)N(C)C(=O)C2(CCCC2)NC(=O)[C@@H]2CCCN2C(=O)[C@H](CCc2ccc(C(F)(F)F)c(Cl)c2)NC(=O)CN(C)C(=O)[C@H](Cc2ccc(C)cc2)N(CCCOC)C(=O)[C@@H]2CCN2C(=O)[C@H](C)N(C)C1=O [PP0093] ([NMeL]I[NMeA][Aze][X27][Sar][hPhe(3-Cl-4-CF3)]P[Ac5c][NMeGly(cPent)][NMeD]-Morpholide; lactam N-11) | C (A compound having a KD ratio of 0.1 or more and less than 3 is denoted as C) | B (a compound having 3 or more and less than 10 is denoted as B)
